Values quoted from earlier work as cited in US9480645B2, “Omega-3 oil containing ophthalmic emulsions” (Abbott Medical Optics Inc., priority 2009, dated 2016).

Settings: generally as reported by the manufacturer of the commercial product

Substance	HLB
Sorbitan monooleate	4.3
Sorbitan monopalmitate	6.7
Sorbitan monostearate	4.7
